According to the supplement of paper PMC10307832:

Columns and labels:
Experiment in all cases: relative viability (nuclei count vs DMSO), 5 days (fraction); higher = more cells survive
Tozasertib + Vorinostat = compound: Cc1cc(Nc2cc(N3CCN(C)CC3)nc(Sc3ccc(NC(=O)C4CC4)cc3)n2)n[nH]1 [Tozasertib] + O=C(CCCCCCC(=O)Nc1ccccc1)NO [Vorinostat] (partner 1 µM)
In short: (§1)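 Dosing by pin tool came one day after lung cancer cell lines were seeded in 1536-well plates, using either one drug or a fixed anchor-drug dose plus five library-drug doses (not always all listed) in √10 steps. After 5 days, nuclei were counted on 4× images. Relative viability is treated-well nuclei count divided by vehicle-well nuclei count, and values are medians of duplicate plates.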

Tozasertib + Crizotinib = compound: Cc1cc(Nc2cc(N3CCN(C)CC3)nc(Sc3ccc(NC(=O)C4CC4)cc3)n2)n[nH]1 [Tozasertib] + C[C@@H](Oc1cc(-c2cnn(C3CCNCC3)c2)cnc1N)c1c(Cl)ccc(F)c1Cl [Crizotinib] (partner 1 µM)
In short: as §1

Tozasertib + Palbociclib = compound: Cc1cc(Nc2cc(N3CCN(C)CC3)nc(Sc3ccc(NC(=O)C4CC4)cc3)n2)n[nH]1 [Tozasertib] + CC(=O)c1c(C)c2cnc(Nc3ccc(N4CCNCC4)cn3)nc2n(C2CCCC2)c1=O [Palbociclib] (partner 0.5 µM)
In short: as §1

Tozasertib + Decitabine = compound: Cc1cc(Nc2cc(N3CCN(C)CC3)nc(Sc3ccc(NC(=O)C4CC4)cc3)n2)n[nH]1 [Tozasertib] + Nc1ncn([C@H]2C[C@H](O)[C@@H](CO)O2)c(=O)n1 [Decitabine] (partner 2 µM)
In short: as §1

Tozasertib + Pemetrexed = compound: Cc1cc(Nc2cc(N3CCN(C)CC3)nc(Sc3ccc(NC(=O)C4CC4)cc3)n2)n[nH]1 [Tozasertib] + Nc1nc2[nH]cc(CCc3ccc(C(=O)N[C@@H](CCC(=O)O)C(=O)O)cc3)c2c(=O)[nH]1 [Pemetrexed] (partner 0.2 µM)
In short: as §1

Row | Cell Line | relative viability (Tozasertib + Vorinostat; first compound 0.004 µM) | relative viability (Tozasertib + Vorinostat; first compound 0.01265 µM) | relative viability (Tozasertib + Vorinostat; first compound 0.1265 µM) | relative viability (Tozasertib + Crizotinib; first compound 0.004 µM) | relative viability (Tozasertib + Crizotinib; first compound 0.01265 µM) | relative viability (Tozasertib + Crizotinib; first compound 0.04 µM) | relative viability (Tozasertib + Crizotinib; first compound 0.1265 µM) | relative viability (Tozasertib + Palbociclib; first compound 0.004 µM) | relative viability (Tozasertib + Palbociclib; first compound 0.01265 µM) | relative viability (Tozasertib + Palbociclib; first compound 0.04 µM) | relative viability (Tozasertib + Palbociclib; first compound 0.1265 µM) | relative viability (Tozasertib + Decitabine; first compound 0.004 µM) | relative viability (Tozasertib + Decitabine; first compound 0.01265 µM) | relative viability (Tozasertib + Decitabine; first compound 0.04 µM) | relative viability (Tozasertib + Decitabine; first compound 0.1265 µM) | relative viability (Tozasertib + Pemetrexed; first compound 0.004 µM) | relative viability (Tozasertib + Pemetrexed; first compound 0.01265 µM) | relative viability (Tozasertib + Pemetrexed; first compound 0.04 µM) | relative viability (Tozasertib + Pemetrexed; first compound 0.1265 µM) | relative viability (Tozasertib + Vorinostat; first compound 0.04 µM)
1 | H3255 | 0.86 | 0.676 | 0.712 | 0.801 | 0.765 | 1.01 | 0.769 | 0.33 | 0.292 | 0.315 | 0.324 | 0.71 | 0.475 | 0.592 | 0.558 | 0.519 | 0.579 | 0.567 | 0.552 | 
2 | SW 1573 | 0.624 | 0.599 | 0.192 | 0.782 | 0.706 | 0.762 | 0.273 | 0.455 | 0.355 | 0.284 | 0.151 | 0.351 | 0.463 | 0.544 | 0.176 | 0.793 | 0.796 | 0.848 | 0.212 | 0.509
3 | NCI-H23 |  | 0.693 | 0.168 | 0.45 | 0.459 | 0.421 | 0.27 | 0.58 | 0.518 | 0.498 | 0.313 | 0.332 | 0.298 | 0.276 | 0.242 | 0.888 | 0.659 | 0.695 | 0.319 | 0.599
4 | NCI-H1755 | 0.749 | 0.782 | 0.675 | 0.803 | 0.89 | 0.852 | 0.634 | 0.456 | 0.461 | 0.442 | 0.442 | 0.744 |  | 0.62 | 0.644 | 0.376 | 0.42 | 0.401 | 0.4 | 0.744
5 | NCI-H358 | 0.626 | 0.648 | 0.15 | 0.457 | 0.345 | 0.261 | 0.228 | 0.14 | 0.135 | 0.168 | 0.0747 | 0.246 | 0.196 | 0.228 | 0.0965 | 0.179 | 0.164 | 0.181 | 0.145 | 0.361
6 | HCC-15 | 0.86 | 0.735 |  | 0.872 | 0.85 | 0.738 | 0.773 | 0.752 | 0.675 | 0.73 | 0.621 | 0.66 | 0.496 | 0.64 | 0.339 | 0.232 | 0.234 | 0.228 | 0.228 | 0.923
7 | NCI-H1915 | 0.505 | 0.564 | 0.439 | 0.98 | 0.889 | 0.873 | 0.721 | 0.515 | 0.498 | 0.535 | 0.465 | 0.268 | 0.263 | 0.236 | 0.261 | 0.46 | 0.477 | 0.474 | 0.412 | 0.512
8 | NCI-H1650 | 0.517 | 0.462 | 0.391 |  | 1.01 | 0.919 |  | 0.328 | 0.287 | 0.365 | 0.207 | 0.351 | 0.364 | 0.404 | 0.307 | 0.334 | 0.374 | 0.381 | 0.385 | 0.68
